This passage reports Activity and MIC results from ChEMBL document CHEMBL3091307, “Structure-anti-MRSA activity relationship of macrocyclic bis(bibenzyl) derivatives” (2013).

Values after ≈ are worked out from the molar mass of the structure shown. Active and inactive are the calls of the source.

A word on the MIC: it is the smallest concentration in the dilution series that meets the test's criterion for growth inhibition. Lower therefore signals a more susceptible organism.

Experiment [1] deals with Staphylococcus aureus. Kind of experiment: Bacteriostatic activity against methicillin-resistant Staphylococcus aureus at 4 times MIC by cell survival assay. In kind it is functional, organism-based.
Experiment [2] deals with Staphylococcus aureus. Put plainly: Bactericidal activity against methicillin-resistant Staphylococcus aureus at 4 times MIC by cell survival assay. In kind it is functional, organism-based.
Experiment [3] relates to Staphylococcus aureus. Kind of experiment: Antibacterial activity against methicillin-resistant Staphylococcus aureus clinical isolate N315 by liquid microdilution method. In kind it is functional. (In general: Broth dilution looks for growth in wells or tubes with falling amounts of substance.)
Experiment [4] relates to Staphylococcus aureus. Put plainly: Antibacterial activity against methicillin-resistant Staphylococcus aureus clinical isolate OM584 by liquid microdilution method. In kind it is functional.
Experiment [5] has as its system Staphylococcus aureus. Kind of experiment: Antibacterial activity against methicillin-resistant Staphylococcus aureus clinical isolate OM481 by liquid microdilution method. In kind it is functional.
For experiment [6], the system named is Staphylococcus aureus. Put plainly: Antibacterial activity against methicillin-resistant Staphylococcus aureus at 4 times MIC by cell survival assay. In kind it is functional, organism-based.
Experiment [7] deals with Staphylococcus aureus. Kind of experiment: Antibacterial activity against 2-phenoxyphenol and trichlosan-resistant Staphylococcus aureus clinical isolate N315 by liquid microdilution method. In kind it is functional.

Take `Oc1ccccc1Oc1ccccc1`: the result in the experiment on Staphylococcus aureus [1] was Active. The outcome in the experiment with Staphylococcus aureus [2] was inactive. In addition, the MIC with Staphylococcus aureus [3], in the experiment on Staphylococcus aureus [4] and in the experiment on Staphylococcus aureus [5] was 8 µg/mL (≈ 43 µM) in each case.

Turning to `Oc1ccc2c(c1)CCc1ccc(O)c(c1)Oc1ccc(cc1)CCc1ccc-2c(O)c1`, the MIC against Staphylococcus aureus [3], against Staphylococcus aureus [4] and in the experiment with Staphylococcus aureus [5] was 4 µg/mL (≈ 9.42 µM) each time.

For `CC(=O)NC[C@H]1CN(c2ccc(N3CCOCC3)c(F)c2)C(=O)O1` [LINEZOLID], the MIC in the experiment with Staphylococcus aureus [4] and with Staphylococcus aureus [5] was 1 µg/mL (≈ 2.96 µM) each time.

For `Oc1ccc2c(c1)CCc1ccc(cc1)Oc1cc(ccc1O)CCc1ccc-2c(O)c1` [RICCARDI C], in the experiment with Staphylococcus aureus [6], the result was Active. Moreover, the MIC with Staphylococcus aureus [7], in the experiment on Staphylococcus aureus [3], against Staphylococcus aureus [4] and in the experiment on Staphylococcus aureus [5] was 2 µg/mL (≈ 4.71 µM) throughout.

Turning to `Oc1ccc2c(c1)CCc1ccc(cc1)Oc1cc(ccc1F)CCc1ccc-2c(O)c1`, the MIC in the experiment on Staphylococcus aureus [3] came out at 1 µg/mL (≈ 2.34 µM); against Staphylococcus aureus [4] it was 2 µg/mL (≈ 4.69 µM); with Staphylococcus aureus [5], 1 µg/mL (≈ 2.34 µM).

As to `Oc1ccc2cc1Oc1ccc(cc1)CCc1ccccc1-c1ccc(cc1O)CC2`, the MIC against Staphylococcus aureus [7], with Staphylococcus aureus [3], in the experiment with Staphylococcus aureus [4] and in the experiment on Staphylococcus aureus [5] was 1 µg/mL (≈ 2.45 µM) each time.

Consider `Oc1ccc2c(c1)CCc1ccc(c(F)c1)Oc1cc(ccc1O)CCc1ccc-2c(O)c1`, for which the MIC against Staphylococcus aureus [3] is 4 µg/mL (≈ 9.04 µM); with Staphylococcus aureus [4] it was 8 µg/mL (≈ 18.1 µM); with Staphylococcus aureus [5] it was 8 µg/mL (≈ 18.1 µM).

With `Oc1ccc2cc1Oc1ccc(cc1)CCc1ccc(O)c(c1)Oc1ccc(cc1)CC2`, the MIC with Staphylococcus aureus [3], in the experiment with Staphylococcus aureus [4] and with Staphylococcus aureus [5] was more than 100 µg/mL each time.

For `Oc1ccc2c(c1)CCc1ccc(cc1O)Oc1cccc(c1)CCc1ccc-2c(O)c1`, the MIC with Staphylococcus aureus [3], in the experiment with Staphylococcus aureus [4] and against Staphylococcus aureus [5] was 4 µg/mL (≈ 9.42 µM) throughout.

`Oc1ccc2c(c1)CCc1ccc(cc1O)Oc1cc(ccc1O)CCc1ccc-2c(O)c1`: the MIC with Staphylococcus aureus [3], with Staphylococcus aureus [4] and with Staphylococcus aureus [5] was 8 µg/mL (≈ 18.2 µM) throughout.

`Oc1ccc2c(c1)CCc1ccc(cc1)Oc1cccc(c1)CCc1ccc-2c(O)c1`: the MIC in the experiment with Staphylococcus aureus [7], in the experiment on Staphylococcus aureus [3], in the experiment on Staphylococcus aureus [4] and in the experiment with Staphylococcus aureus [5] was 1 µg/mL (≈ 2.45 µM) throughout.

On to `Oc1ccc2c(c1)CCc1ccc(c(O)c1)-c1ccc(O)c(c1)CCc1ccc-2c(O)c1`, for which the MIC in the experiment with Staphylococcus aureus [3], with Staphylococcus aureus [4] and against Staphylococcus aureus [5] was 32 µg/mL (≈ 75.4 µM) in each case.

`Oc1ccc2c(c1)CCc1ccc(c(O)c1)Oc1cc(ccc1O)CCc1ccc-2c(O)c1`: the minimum inhibitory concentration (MIC) with Staphylococcus aureus [3] is 8 µg/mL (≈ 18.2 µM); in the experiment on Staphylococcus aureus [4] it was 16 µg/mL (≈ 36.3 µM); in the experiment on Staphylococcus aureus [5] it was 16 µg/mL (≈ 36.3 µM).
